Consider one compound from US20240300927A1, “AMIDES AS CBL-B INHIBITORS” (Genentech, Inc., priority 2021, published 2024).

One series is described as follows: LogD. The series is classed as physicochemical.
A further series has as its target CYP3A4 (Homo sapiens (Human), UniProt P08684). Nature of the series: Reversible CYP inhibition, CYP3A4. Format: in vitro ADME. From the text: Reversible CYP inhibition by compounds described herein can be measured by protocols described by Halladay, J. S.; Delarosa, E. M.; Tran, D.; Wang, L.; Wong, S.; Khojasteh, S. C., “High-Throughput, 384-Well, LC-MS/MS CYP Inhibition Assay Using Automation, Cassette-Analysis Technique, and Streamlined Data Analysis”, Drug. Metab. Lett. 2011, 5 (3), 220-230, incorporated herein by reference.
In the CYP3A4 measurements, potency is less desirable.

Series [1] in a line: Liver microsomes metabolic stability, mouse. Format: in vitro ADME. On the procedure:
(§1) Metabolic stability of test compounds was evaluated in pooled rat, mouse, dog, and cynomolgus monkey liver microsomes (BD Biosciences, San Jose, CA). The incubation conditions were as follows: 1 μM of the tested compound, 1 mM NADPH, 0.5 mg/mL microsomal protein in 0.1 M potassium phosphate buffer (pH 7.4). Following a 5-minute pre-incubation period, the enzymatic reactions were initiated by the addition of NADPH and test compound to the microsomes diluted in phosphate buffered saline. The mixtures were incubated at 37° C. for 0, 20, 40, and 60 min.
(§2) Compound concentrations were assessed by LC-MS/MS. Intrinsic clearance based upon microsomal stability data was determined using a substrate depletion method and scaled to hepatic clearance using the well-stirred model (Obach, R. S.; Baxter, J. G.; Liston, T. E.; Silber, B. M.; Jones, B. C.; MacIntyre, F.; Rance, D. J.; Wastall, P., “The Prediction of Human Pharmacokinetic Parameters from Preclinical and in vitro Metabolism Data”, J. Pharmacol. Exp. Ther., (1997), 283 (1), 46-58).
(Liver microsomes are a subcellular fraction often used to study metabolism.)

Series [2] can be described thus: Liver microsomes metabolic stability, dog. The series is classed as in vitro ADME. As to the method:
as §1, §2

A short description of series [3]: Liver microsomes metabolic stability, human. Format: in vitro ADME.
Series [4] in a line: In vitro plasma protein binding, mouse. The following applies: pooled mouse plasma, read-out: PPB % (H/R/M) (converted). The series is classed as in vitro ADME. On the procedure: In vitro plasma protein binding (n=2) was determined in pooled mouse, rat, and human plasma (Bioreclamation, Inc., Hicksville, NY) by equilibrium dialysis using a Rapid Equilibrium Dialysis (RED) device (Pierce Biotechnology/Thermo Fisher Scientific; Rockford, IL) with a molecular weight cut-off of 8000 Daltons. Test compounds were added to plasma. Plasma samples were equilibriated with phosphate-buffered saline at 37° C. for 4 hours. Compound concentrations in post-dialysis plasma and buffer samples were measured by LC-MS/MS. The percent unbound fraction in plasma for each compound was calculated by dividing the compound concentration in the post-dialysis buffer by that measured in the post-dialysis plasma and multiplying by 100%.

Series [5] can be described thus: Liver microsomes metabolic stability, cynomolgus monkey. Format: in vitro ADME. On the procedure: as §1, §2
Series [6] addresses Human Cbl-b (residues 40-426) (Homo sapiens (Human), UniProt Q13191). Nature of the series: Cbl-b SPR assay (incl. multi-point chaser variation). Format: binding. On the procedure:
Affinity of binding to Cbl-b and c-Cbl for compounds described herein can be assessed by surface plasmon resonance (SPR) according to the following protocol. All experiments were recorded on a Biacore™ 8K or Biacore™ 8K+ (Cytiva) with both surface preparation and experimental measurements performed at 20° C. in an assay buffer consisting of 50 mM HEPES, pH 7.5, 0.15 M NaCl, 0.001% (v/v) Tween® 20, 0.2 mM tris(2-carboxyethyl)phosphine, 0.025% (w/v) carboxymethylated dextran (average MW 10 kDa), 0.2% (w/v) PEG 3350, and 2% DMSO. […]
For SPR measurements, 6 concentrations with 2 fold serial dilution were measured with blanks flanking each series for double referencing. […] SPR sensorgrams were recorded in multi-cycle kinetics format, with a contact time of 60 seconds and a flow rate of 40 μl/min, the dissociation time was varied between 120-1200 seconds aiming for 4-5 half-lives of the measured interaction. […]
In the case of potent compounds, the protein-compound half-life cannot be accurately measured using routine fitting of the single cycle titration data. The kd is measured independently by determining the percentage unoccupied compound binding site over time by measuring the binding of a chaser compound measured by SPR.
Chaser binding was measured by a multicycle kinetics SPR experiment using a contact time of 20 seconds, a flow rate of […], and a dissociation time of 120 seconds. […]
Background: SPR reads the build-up and loss of mass on a sensor chip optically.

The subject of a further series is hWB. Nature of the series: IL-2 hWB assay. Format: cell-based. The following applies: Homo sapiens.

Like-named read-outs stand apart in the source and are kept apart here.

Chain of Human Cbl-b (residues 40-426) (Q13191 40-426): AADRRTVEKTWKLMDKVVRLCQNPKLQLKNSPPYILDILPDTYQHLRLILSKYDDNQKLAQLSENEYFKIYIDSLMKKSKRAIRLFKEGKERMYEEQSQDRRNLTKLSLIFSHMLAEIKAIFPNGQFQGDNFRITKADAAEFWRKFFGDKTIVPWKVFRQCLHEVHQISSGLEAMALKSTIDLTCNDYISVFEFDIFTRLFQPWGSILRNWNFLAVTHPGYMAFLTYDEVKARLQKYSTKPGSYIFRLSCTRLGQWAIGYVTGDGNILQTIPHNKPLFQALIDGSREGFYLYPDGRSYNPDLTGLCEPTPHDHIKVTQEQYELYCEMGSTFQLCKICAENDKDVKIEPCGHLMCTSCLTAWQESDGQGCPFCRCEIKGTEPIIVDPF
Chain of CYP3A4 (P08684 whole entry): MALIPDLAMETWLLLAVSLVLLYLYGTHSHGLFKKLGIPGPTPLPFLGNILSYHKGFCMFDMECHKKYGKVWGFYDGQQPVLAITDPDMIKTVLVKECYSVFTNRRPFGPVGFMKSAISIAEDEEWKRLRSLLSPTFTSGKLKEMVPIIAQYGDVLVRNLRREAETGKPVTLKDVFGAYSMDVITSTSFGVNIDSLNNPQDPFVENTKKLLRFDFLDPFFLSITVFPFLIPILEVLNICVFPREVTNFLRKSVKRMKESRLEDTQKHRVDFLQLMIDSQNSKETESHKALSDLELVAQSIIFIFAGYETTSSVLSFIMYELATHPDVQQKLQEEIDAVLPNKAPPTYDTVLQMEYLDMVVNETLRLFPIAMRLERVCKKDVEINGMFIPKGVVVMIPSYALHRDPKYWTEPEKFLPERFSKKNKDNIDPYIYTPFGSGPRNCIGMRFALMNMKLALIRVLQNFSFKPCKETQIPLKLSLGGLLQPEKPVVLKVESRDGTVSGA

On to `CC(C)[C@H]1CN(C)CCN1Cc1cc(C(=O)Nc2cccc(C3(Cc4nncn4C)CC(F)(F)C3)c2)nc(C2CC2)c1` [Compound 224, (S)-6-cyclopropyl-N-(3-(3,3-difluoro-1-((4-methyl-4H-1,2,4-triazol-3-yl)methyl)cyclobutyl)phenyl)-4-((2-isopropyl-4-methylpiperazin-1-yl)methyl)picolinamide], for which, in “LogD”, the logD (usually the decadic logarithm of the distribution of all forms, ionised or not, between an organic phase and buffer at a given pH) came out at 2.2. Also, the IC50 worked out at 0.64 µM on CYP3A4 (M, read-out: CYP3A4 IC50 (M/T)) and 6.7 µM against CYP3A4 (T). For the same compound, the “LM (H/R/M/D/C)” value in [1] was 60; in series [2] it was 29; in [3], 18; in series [5], 40. In addition, in [4], the fraction unbound at 4 h was 0.06. Also, the dissociation constant (Kd) (usually the concentration at which binding is half-saturated) in series [6] (read-out: SPR Kd kin) amounted to 0.0056 µM. In addition, the “SPR Kd kin (select.)” value in series [6] (selectivity) is listed as 1.3 x. For the same compound, the EC50 (commonly the concentration giving half of the maximal effect) in the series on hWB turned out to be 0.25 µM.
